This is an account of results in patent US9694005B2, “Nonsteroidal and steroidal compounds with potent androgen receptor down-regulation and anti prostate cancer activity” (University of Maryland, Baltimore, priority 2013, dated 2017).

One data set concerns CWR22Rv1. In words: Cell growth inhibition (MTT colorimetric assay), CWR22Rv1. The conditions noted are these: Homo sapiens. The data set is classed as cell-based. As for the experimental part:
(§1) Compounds were evaluated on their ability to inhibit LNCaP cell (androgen sensitive AR-mutant), C4-2B and CWR22Rv1 (CRPC cell lines) viability at 1 and 10 μM concentrations by the MTT assy.
(§2) The cells were seeded in 96-well plates (Corning Costar) at a density of 5×10^3 cells per well. Cells were allowed to adhere to the plate for 24 hours and then treated with various concentrations of compounds dissolved in 95% EtOH. Cells were treated for 7 days with renewal of test compound and media on day 4. On the 7th day, medium was renewed and MTT (3-(4,5-dimethylthiazol-2-yl)-2,5-diphenyl-2H-tetrazolium bromide) (Sigma, St Louis, Mo., USA) solution (0.5 mg MTT per ml of media) was added to the medium such that the ratio of MTT: medium was 1:10. The cells were incubated with MTT for 2 hours. The medium was then aspirated and DMSO was added to solubilize the violet MTT-formazan product. The absorbance at 562 nm was measured by spectrophotometry (Biotek Inc.).

Another data set concerns LNCaP cells. Description: Cell growth inhibition (MTT colorimetric assay), LNCaP. It counts as cell-based, human. The conditions noted are these: Homo sapiens. As for the experimental part:
as §1, §2
On the technique in general: Tetrazolium assays rely on reduction of a dye to a coloured formazan, in cell work by metabolically active cells.

In data set [1] the test system is PARP cleavage, CDC25c, Mnk2, Cyclin D1, Cox-2 and N-Cadherin in LNCaP cells. Description: Effects of compounds on oncogenes at the protein level, LNCaP cells. It counts as cell-based, human. The conditions noted are these: FIGS. 9A and 9C. The method, then: (§3) In the experiments show in FIG. 9, LNCaP and CWR22Rv1 cells were treated VN/124-1 and analogs at varying time points and effects on significant cancer cells promoting genes investigated at the protein level.

The test system of data set [2] is N-Cadherin, AR3, Mnk1/2, MMP-2, Ezh2, Mc1-1, eIF4E phosphorylation in CWR22Rv1 cells. In words: Effects of compounds on oncogenes at the protein level, CWR22Rv1 cells. The data set is classed as cell-based, human. The conditions noted are these: FIGS. 9B and 9G.
The next data set relates to PC3 cells. In words: Cell migration of PC3 cells. The conditions noted are these: 5 μM, after 12 hours; FIG. 10. It counts as cell-based, human.
A further data set has as its target T1, AR protein (Homo sapiens, UniProt P10275, T878A).
T1 construct: Effect of compounds on suppression of AR protein levels in LNCaP cells; endogenous in cells; host or cells: LNCaP
T1 sequence (P10275 1-920 T878A): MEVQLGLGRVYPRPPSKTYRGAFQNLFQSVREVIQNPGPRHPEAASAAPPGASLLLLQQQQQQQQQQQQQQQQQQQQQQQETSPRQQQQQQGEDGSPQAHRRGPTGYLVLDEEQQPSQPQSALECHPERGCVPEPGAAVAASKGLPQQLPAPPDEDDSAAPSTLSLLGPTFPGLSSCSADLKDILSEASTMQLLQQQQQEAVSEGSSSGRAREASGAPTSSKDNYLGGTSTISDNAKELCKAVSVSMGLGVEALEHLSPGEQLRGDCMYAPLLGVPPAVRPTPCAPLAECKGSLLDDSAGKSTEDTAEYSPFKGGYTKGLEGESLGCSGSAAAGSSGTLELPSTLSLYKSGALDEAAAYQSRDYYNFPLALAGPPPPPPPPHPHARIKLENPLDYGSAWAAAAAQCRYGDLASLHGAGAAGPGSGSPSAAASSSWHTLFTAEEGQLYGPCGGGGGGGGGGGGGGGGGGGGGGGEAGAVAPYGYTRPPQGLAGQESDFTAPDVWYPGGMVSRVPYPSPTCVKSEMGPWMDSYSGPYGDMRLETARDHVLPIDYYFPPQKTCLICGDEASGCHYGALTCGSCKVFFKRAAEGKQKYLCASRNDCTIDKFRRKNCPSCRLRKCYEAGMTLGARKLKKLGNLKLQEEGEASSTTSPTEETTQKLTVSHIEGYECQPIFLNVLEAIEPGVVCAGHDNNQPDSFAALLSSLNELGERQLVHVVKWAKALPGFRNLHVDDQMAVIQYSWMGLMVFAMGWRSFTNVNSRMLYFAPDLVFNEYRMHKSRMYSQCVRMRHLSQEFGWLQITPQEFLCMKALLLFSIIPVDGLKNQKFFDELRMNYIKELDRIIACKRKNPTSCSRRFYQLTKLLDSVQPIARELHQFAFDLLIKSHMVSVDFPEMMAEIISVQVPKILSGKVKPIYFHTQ
In words: Western blotting, AR protein levels in LNCaP cells. It counts as cell-based. The conditions noted are these: 15 μM of each compound for 24 h (FIG. 8). As for the experimental part: The ability of various compounds to down-regulate AR protein expressions was determined by western blotting.
In general terms: Immunoblotting shows a protein as a band on a membrane.

In data set [3] the test system is full length AR and the splice variants ARs. Description: AR down-regulation in CWR22Rv1 (FIGS. 9D, 9E, 9F). The data set is classed as cell-based, human. The conditions noted are these: 9E and 9F. As for the experimental part: as §3
In data set [4] the test system is LNCaP cell, C4-2B and CWR22Rv1. Description: Cell growth inhibition (MTT), anticancer activity, cell line not given. The data set is classed as cell-based, human. The conditions noted are these: cell line not stated. As for the experimental part:
as §1

In a further data set the test system is full length AR. In words: AR down-regulation (FIG. 9H). It counts as cell-based, human.
[5] abbreviates: CWR22Rv1, 168 h, Steroidal VNPP compounds table, treated for 7 days.
The mark [6] stands for this setting: LNCaP, 168 h, Steroidal VNPP compounds table, treated for 7 days, read-out: GI50 Values High Passage LNCaP.
Where [7] appears, read: LNCaP, 168 h, Steroidal VNPP compounds table, treated for 7 days, read-out: GI50 Values Low Passage LNCaP.
[8] abbreviates: Table 10, LNCaP high passage, read-out: GI50 Values LNCaP (High Passage).
The mark [9] stands for this setting: Table 10, LNCaP low passage, concentration required to inhibit cell growth by 50%, read-out: GI50 Values LNCaP (Low Passage).
Where [10] appears, read: CWR22Rv1, 168 h, Non-steroidal VNPP compounds table, treated for 7 days.
Setting [11] is: LNCaP, 168 h, Non-steroidal VNPP compounds table, treated for 7 days, read-out: GI50 Values High Passage LNCaP.
Where [12] appears, read: LNCaP, 168 h, Non-steroidal VNPP compounds table, treated for 7 days, read-out: GI50 Values Low Passage LNCaP.

Read-outs that look alike come from different tables or passages of the source.

Regarding `C[C@]12CC[C@H](OC(=S)n3ccnc3)CC1=CCC1C2CC[C@]2(C)C(n3cnc4ccccc43)=CCC12` (stereo partly drawn) [VNPP397, 3β-(1H-imidazole-1-thiocarboxylate)-17-(1H-benzimidazol-1-yl)androsta-5,16-diene], the figures for the 50% growth inhibitory concentration (GI50) with CWR22Rv1 (setting [5]) and with LNCaP cells (setting [6]) were 7.52 µM and 9.57 µM, respectively.

Consider `C[C@]12CC[C@H](OCc3ccncc3)CC1=CC[C@@H]1[C@@H]2CC[C@]2(C)C(n3cnc4ccccc43)=CC[C@@H]12` [VNPP414, 3β-(pyridine-4-ylmethoxy)-17-(1H-benzimidazol-1-yl) androsta-5,16-diene], for which the 50% growth inhibitory concentration (GI50) (in general, the concentration at which growth is held to half of that of the control) in the data set on CWR22Rv1 (setting [5]) was found to be 3.24 µM; with CWR22Rv1 (CWR22Rv1, Table 10), 3.24 µM; in the data set with LNCaP cells (setting [6]) it was 2.45 µM; in the data set on LNCaP cells (setting [7]), 0.87 µM; with LNCaP cells (setting [8]), 2.45 µM; in the data set on LNCaP cells (setting [9]) it was 0.87 µM. Besides, in [1], the “Expression of CDC25c, Mnk2, Cyclin D1, Cox-2 and N-Cadherin” value was “reduced”. The “PARP cleavage (signature of apoptosis)” value in data set [1] is listed as “significant increase”. Moreover, the “Phosphorylation of eIF4E” value in data set [2] is reported as “downregulated”. Further, the “Protein expression of N-Cadherin, AR3, Mnk1/2, MMP-2, Ezh2, Mc1-1” value in [2] is “decreased”. Also, the “Migration of PC3 cells” value with PC3 cells was “profoundly inhibit migration”.

Regarding `COc1cccc(-c2ccc(Cn3cnc4ccccc43)cc2)c1` [VNPP347B, 3-[4-(benzimidazolylmethyl)phenyl]-1-methoxybenzene], the figures for the GI50 with CWR22Rv1 (setting [10]) and in the data set with LNCaP cells (setting [11]) were 14 µM and 4.41 µM, respectively.

As to `C[C@]12CCC3c4ccc(C(=O)O)cc4CCC3C1CC=C2n1cnc2ccccc21` (stereo partly drawn) [VNPP341], the “AR down-regulating action (AR protein levels, western blot)” value at AR protein is on record as “AR up-regulators”. In addition, in [3], the “AR down-regulation against full length AR and the splice variants ARs” value is “showed activity (AR down-regulation)”. In data set [4], the “Anticancer activity (SAR statement)” value was “moderately acting”.

Consider `C[C@]12CC[C@H](n3cnc4ccccc43)CC1=CC[C@@H]1[C@@H]2CC[C@]2(C)C(n3cnc4ccccc43)=CC[C@@H]12` [VNPP433 (A2), 3β-(1H-benzimidazol-1-yl)-17-(1H-benzimidazol-1-yl)androsta-5,16-diene], for which the “AR down-regulation against full length AR” value with full length AR was “activity (AR down-regulation)”.

Regarding `C[C@]12CC[C@H](n3ccnc3)CC1=CC[C@@H]1[C@@H]2CC[C@]2(C)C(n3cnc4ccccc43)=CC[C@@H]12` [VNPP433-3β, 3β-(1H-imidazol-1-yl)-17-(1H-benzimidazol-1-yl) androsta-5,16-diene], the GI50 with CWR22Rv1 (setting [5]) was 2.54 µM; with CWR22Rv1 (CWR22Rv1, Table 10), 2.54 µM; in the data set on LNCaP cells (setting [6]), 1.64 µM; in the data set on LNCaP cells (setting [7]), 0.81 µM; in the data set on LNCaP cells (setting [8]), 1.64 µM; in the data set with LNCaP cells (setting [9]), 0.81 µM. For the same molecule, the “AR down-regulation against full length AR” value with full length AR is listed as “activity (AR down-regulation)”.

On to `C[C@]12CCC3c4ccc(O)cc4CCC3C1CC=C2n1cnc2ccccc21` (stereo partly drawn) [VNPP338], for which the “AR down-regulating action (AR protein levels, western blot)” value at AR protein is “potent AR down-regulating agents”. Also, the “AR down-regulation against full length AR and the splice variants ARs” value in data set [3] is “showed activity (AR down-regulation)”. Besides, in data set [4], the “Anticancer activity (SAR statement)” value is given as “equal potent anticancer activity to compound VN/124-1”.

Consider `c1cc(-c2ccc(CCn3cnc4ccccc43)cc2)cc(-c2nn[nH]n2)c1` [VNPP364, 5-{3-[4-(benzimidazolylethyl)phenyl]phenyl}-1H-1,2,3,4-tetraazole], for which the melting point (usually the temperature, or range, at which the solid turns liquid) fell in the range of 223 to 225 °C.

With `C[C@]12CCC3CC31[C@H](n1ccnc1)CC1C3CC=C(n4cnc5ccccc54)C3CCC12` (stereo partly drawn) [VNPP433-6β, 6β-imidazol-1yl-3,5-cycloandrostan-17-benzimidazole-1-yl-16-ene], the GI50 in the data set with CWR22Rv1 (setting [5]) came to 12.3 µM; with LNCaP cells (setting [6]) it was 6.61 µM. The “AR down-regulation against full length AR” value in the data set with full length AR is listed as “activity (AR down-regulation)”.

On to `COc1ccc(S(=O)(=O)Nc2cccc(-n3cnc4ccccc43)c2)cc1` [VNPP431, (3-benzimidazolylphenyl)[(4-methoxyphenyl)sulfonyl]amine], for which the GI50 came out at 4.78 µM in the data set with CWR22Rv1 (setting [10]), 3.14 µM in the data set with LNCaP cells (setting [11]) and 5.23 µM in the data set on LNCaP cells (setting [12]).

In the case of `CNC(=O)c1ccc(N2C(=S)N(c3ccc(C#N)c(C(F)(F)F)c3)C(=O)C2(C)C)cc1F` [MDV3100, reference compound], the 50% growth inhibitory concentration (GI50) in the data set with LNCaP cells (setting [6]) and in the data set with LNCaP cells (setting [9]) was 4.85 µM throughout.

For `Oc1ccc2cc(-c3cccc(-n4cnc5ccccc54)c3)ccc2c1` [VNPP372/2, 6-(3-benzimidazolylphenyl)naphthalen-2-ol], the GI50 in the data set on CWR22Rv1 (setting [10]) worked out at 8.91 µM; in the data set with LNCaP cells (setting [11]), 6.09 µM; in the data set with LNCaP cells (setting [12]) it was 5.77 µM.

As to `CO[C@H]1CC[C@@]2(C)C(=CC[C@@H]3[C@@H]2CC[C@]2(C)C(n4cnc5ccccc54)=CC[C@@H]32)C1` [VNPP412, 3β-(methoxy)-17-(1H-benzimidazol-1-yl) androsta-5,16-diene], the GI50 came out at 7.5 µM with CWR22Rv1 (setting [5]) and 8.71 µM in the data set with LNCaP cells (setting [6]).

`N#Cc1cccc(-c2ccc(Cn3cnc4ccccc43)cc2)c1` [VNPP358, 3-[4-(benzimidazolylmethyl)phenyl]benzenecarbonitrile]: the GI50 is 10.5 µM with CWR22Rv1 (setting [10]), 3.5 µM in the data set with LNCaP cells (setting [11]) and 3.71 µM in the data set on LNCaP cells (setting [12]).

`C[C@]12CC[C@@H](n3ccnc3)CC1=CC[C@@H]1[C@@H]2CC[C@]2(C)C(n3cnc4ccccc43)=CC[C@@H]12` [VNPP433-3α, 3α-(1H-imidazol-1-yl)-17-(1H-benzimidazol-1-yl) androsta-5,16-diene]: the 50% growth inhibitory concentration (GI50) in the data set on CWR22Rv1 (setting [5]) was determined as 9.88 µM; in the data set on LNCaP cells (setting [6]), 8.91 µM; in the data set with LNCaP cells (setting [7]), 4.04 µM. The “AR down-regulation against full length AR” value in the data set with full length AR is “activity (AR down-regulation)”.

`c1cc(-c2ccc(Cn3cnc4ccccc43)cc2)cc(-c2nn[nH]n2)c1` [VNPP361, 5-{3-[4-(benzimidazolylmethyl)phenyl]phenyl}-1H-1,2,3,4-tetraazole] came in with a melting point of 231 to 233 °C.
